From patent publication US12433882B2, “Treatments for amyotrophic lateral sclerosis using dazucorilant” (Corcept Therapeutics Incorporated, priority 2022, dated 2025)

System: effect of prednisone on eosinophils, lymphocytes, neutrophils, osteocalcin
Assay: First In Human study Part 3, proof of pharmacological effect (prednisone challenge)
Format: in vivo
Text: Linear mixed model of PD parameter estimates from part 3 of the FIE study, including terms for treatment fitted as a fixed effect, subject fitted as a random effect, and baseline concentration values fitted as a covariate. AUEC, area under the effect curve; cfb, change from baseline; CI, confidence interval; Emax, maximum change; ns, not significant.

C[C@]12C=CC(=O)C=C1CC[C@@H]1[C@@H]2C(=O)C[C@@]2(C)[C@H]1CC[C@]2(O)C(=O)CO [Prednisone, prednisone]
EOSINOPHILS AUEC(0-24) cfb (adjusted arithmetic mean) (Prednisone (25 mg) alone): −2.80 109*h/L
LYMPHOCYTES AUEC(0-24) cfb (adjusted arithmetic mean) (Prednisone (25 mg) alone): −2.470 109*h/L
NEUTROPHILS AUEC(0-24) cfb (adjusted arithmetic mean) (Prednisone (25 mg) alone): 74.7 109*h/L
effect of a single dose on eosinophils, lymphocytes, osteocalcin and neutrophils (single dose of prednisone): decreased eosinophils, lymphocytes, and osteocalcin, and increased neutrophils
